Assay results as given in publication PMC8168783, “An anion and small molecule inhibition study of the β-carbonic anhydrase from Staphylococcus aureus” (Journal of Enzyme Inhibition and Medicinal Chemistry, 2021).

Molecular target: T1, SauBCA
T1 construct: recombinant, obtained in-house as described earlier
Test: stopped-flow CO2 hydration assay
Assay type: biochemical, Staphylococcus aureus
Conditions: CO2 1.7-17 mM, 10 mM Hepes pH 7.4, 10 mM NaClO4, 15 min preincubation at room temperature; inhibitor as sodium salt

Structure (SMILES) | Ki [mM]
CCN(CC)C(=S)S [N,N-diethyldithiocarbamate] | 0.64
O=S(O)O [bisulphite] | 0.9
O=[As](O)(O)c1ccccc1 [phenylarsonic acid] | 0.007
N#C[SeH] [selenocyanate] | 5.5
[O]=[Sn]([OH])[OH] [stannate] | 0.32

Same assay, conditions: CO2 1.7-17 mM, 10 mM Hepes pH 7.4, 10 mM NaClO4, 15 min preincubation at room temperature; not as sodium salt

Structure (SMILES) | Ki [mM]
OB(O)c1ccccc1 [phenylboronic acid] | 0.008
